Experimental findings from patent US7579374B2, “Agent for improving bone metabolism” (The Nisshin OilliO Group, Ltd., priority 2001, dated 2009) are described below.

A short description of one data set: Test for acute toxicity. The data set is classed as in vivo, rats. The conditions noted are these: oral. The method, then: The acute toxicity test was carried out according to the following method. Whister female rats (6-week-old, average body weight: 160 g) were previously kept for one week using a powdery blend feed having an AIN-93 composition, divided into three groups (each group containing 10 animals) in such a manner that the average body weight was uniform and the groups were specified as the orally administered group, the subcutaneously administered group and the intraperitoneally administered group, in the following tests. Geranyl-geranyl eicosapentaenoate prepared according to the procedures used in Example 5 was dissolved in cotton seed oil and administered to the foregoing animals through the corresponding administration routes in an amount of 2000 mg/kg (body weight). Subsequently, these animals were kept using a powdery blend feed having an AIN-93 composition to thus observe the prognostic conditions of the animals over 2 weeks after the administration and after 2 weeks, these animals were anatomized to thus inspect the animals for conditions of internal organs thereof.

In data set [1] the test system is MC3T3-E1 cells. As to the kind of experiment: Cell growth rate of osteoblasts in cell culture system. The data set is classed as cell-based, mice. The following applies: 10 μM; viable cells after 3 days; relative to control defined as 100. The text has this: (§1) In such a system, the osteoblasts are proliferated and the activity of osteoblasts is increased. Therefore, any influence of a substance on the osteoblast-formation can be evaluated by determining, for instance, the rate of cell proliferation and the alkaline phosphatase (ALP) activity as an activity parameter.
(§2) In this Example, there were examined the effects of the chain isoprenoid fatty acid esters on the differentiation and calcium-accumulation of MC3T3-E1 cells or the osteoblasts derived from the skull-caps of mice. A culture medium was added to a 6-well plate in an amount of 2 mL/well, a desired number of MC3T3-E1 cells was inoculated on the medium and the cells were cultivated in a 10% fatal bovine serum-containing base culture liquid (α-MEM, available from Gibco Company) at 37° C. in an atmosphere of 5% CO2. On the day subsequent to the initiation of the cultivation, the culture medium was replaced with the fresh one and simultaneously a solution containing each test sample (the chain isoprenoid fatty acid esters obtained in Preparation Examples 1 to 9) was admixed with and added to the culture medium in an amount of 10 μM for the determination of the cell growth rate and 2.5 μM for the determination of the alkali phosphatase (ALP) activity and the cultivation was continued. The cells for the cell growth rate determination were recovered after 3 days from the initiation of the cultivation and the number of viable cells was counted to determine the cell growth rate. Regarding the other cells, the medium was replaced with fresh one on 5th day of cultivation, the test sample-containing solution was again added and the alkali phosphatase (ALP) activity was determined after the cultivation over one week.
The cell growth rate was calculated as a value relative to the cell growth rate observed for the control (free of any added test sample), which was defined to be 100.

Another data set relates to osteoclasts. As to the kind of experiment: Bone absorption-inhibitory action in cell co-cultivation system (TRACP activity). The data set is classed as cell-based, mice. The following applies: 10 μM test substance. The text has this:
The cell co-culture system used herein means a system in which osteoblasts and hematopoietic cells are subjected to co-culture in the presence of a factor for promoting the formation of osteoclasts and which thus easily permits the analysis of the differentiation process of the osteoclasts (Endocrinology, 1988, 123: 2600-2602). In such a system, osteoclasts are formed and therefore, the degree of osteoclast-formation can be evaluated by the determination of a tartaric acid-resistant acid phosphatase (TRACP) activity in the cell layer as the parameter indicative of the osteoclast.
The test for the confirmation of the bone absorption-inhibitory action of the isoprenoid ester was carried out according to the method disclosed in the literature (Endocrinology, 1988, 123: 2600). The method will be outlined below:
Stroma cells collected from the skull-caps of two-week-old mice according to the method disclosed in the literature (Endocrinology, 1988, 123: 2600) were dispersed in a 10% fetal bovine serum-containing culture base liquid (α-MEM; available from Gibco Company) to a cell density of 5×10^4 cells/mL.
Spleen cells collected from the spleen of 6-week-old ddy male mice according to the method disclosed in the literature (Proc. Natl. Acad. Sci. USA, 1983, 80: 5583) were dispersed in a 10% fetal bovine serum-containing culture base liquid (α-MEM; available from Gibco Company) to a cell density of 5×10^5 cells/mL.
The co-cultivation was carried out in a 5% CO2-containing atmosphere at a temperature of 37° C. using a 10% FBS (fetal bovine serum)-containing culture base liquid (α-MEM; available from Gibco Company). Osteoblast cells were inoculated on a 24-well petri dish at a cell density of 5×10^4 cells/mL/well, spleen cells were then inoculated thereon at a cell density of 5×10^5 cells/mL/well after one day and a solution of a test substance, which had been dissolved in DMSO in a concentration of 10^-2M, was then added to each well in such a manner that the concentration of the test substance was equal to 10 μM. These cells were cultivated in the presence of 10 nM Calcitriol and 100 nM Dexamethasone over 2 weeks while defining the day on which the spleen cells were inoculated as 0th day. In this respect, the culture medium was replaced with fresh one twice a week. After two weeks, the activity of the tartrate-resistant acid phosphatase (hereunder referred to as “TRACP”) in the cell layer was determined, which served as a parameter indicating the number of osteoclasts in the layer.
In the determination of the TRACP activity, there was used a kit of acid phosphatase KII-WAKO (available from WAKO Pure Chemical Co., Ltd.). The culture medium was removed from the Petri dish, 500 μL each of a substrate was added to each well, the resulting cell suspension was heated at 37° C. for 15 minutes, followed by the addition of 500 μL each of a color developing liquid and the determination of the absorbance at a wavelength of 570 nm. The TRACP activity corresponding to each absorbance thus measured was determined using a calibration curve prepared in advance.

Data set [2] deals with MC3T3-E1 cells. As to the kind of experiment: Alkaline phosphatase (ALP) activity of osteoblasts in cell culture system. The following applies: 2.5 μM. The data set is classed as cell-based, mice.
Excerpt: as §1, §2
In these experiments, there was used a kit for Alkaline Phospha K-Test WAKO (available from WAKO Pure Chemical Co., Ltd.). A sample used was a suspension of cells obtained by cultivating the same in the presence of each test substance added. A substrate (150 μL) was added to 10 μL of each sample followed by heating at 37° C. for 15 minutes, the addition of 150 μL of a color-developing liquid and determination of the absorbance at 570 nm. The ALP activity corresponding to each absorbance thus measured was determined using a calibration curve prepared in advance.

Turning to Geranyl-Geranyl Eicosapentaenoate, the “Anatomical findings of the internal organs” value in the data set “Test for acute toxicity” (2000 mg/kg, subcutaneous, intraperitoneal, after 2 weeks) was “normal”. Besides, the Mortality entry in the data set “Test for acute toxicity” (2000 mg/kg, subcutaneous, intraperitoneal, after 2 weeks from the administration) is recorded as “any animal was not killed”. In “Test for acute toxicity” (female rats, subcutaneous and intraperitoneal groups, single 2000 mg/kg in cotton seed oil, 2 weeks observation), the LD50 value entry was “higher than 2000 mg/kg (body weight)”. Besides, the “Cell Growth Rate” value with MC3T3-E1 cells [1] was found to be 107.8%. Further, in the data set with osteoclasts (2 weeks), the “Judged Efficacy (TRACP, t-test relative to the control)” value is given as “⊚ (The test substance shows a considerable inhibitory effect (p < 0.01))”. Moreover, the “TRACP Act.” value with osteoclasts (co-culture 2 weeks with 10 nM Calcitriol and 100 nM Dexamethasone, control 102.8 ± 12.6) is given as 9.7 ± 1.4 KA-U/well. Further, the “ALP Act.” value with MC3T3-E1 cells [2] (cultivation over one week, control 71.6 ± 4.6) turned out to be 123.5 ± 7.3 KA-U/well. For the same substance, the “Judged Efficacy (ALP, t-test relative to the control)” value in the data set on MC3T3-E1 cells [2] (one week) was “⊚ (The test substance shows a considerable inhibitory effect (p < 0.01))”.
